“Also recorded” adds a separate entry of the source.
Key:
[1] = system: Sprague-Dawley (SD) mice; experiment: Treadmill experiment after 6 weeks of oral administration (muscle mitochondrial genes, exercise time, plasma lactate); type: in vivo; details: 20 mg/kg orally for 6 weeks; for expression of mitochondrial marker gene in muscle (mitochondrial activity): muscle tissue after treadmill, FIGS. 16-18; for exercise time / exercise ability on treadmill: run until exhausted, FIGS. 19, 25
Experimental: The following experiment was performed to confirm whether the exercise ability improving effect due to the increased mitochondrial production and lipid metabolism promotion of the ginseng seed-derived novel ginsenoside (GS #10) confirmed in Test Example 1 above was also shown at the actual individual level. 20 mg/kg each of the novel ginsenoside GS #10 of one embodiment of the present disclosure and the other ginsenosides GS #01-GS #06 isolated from the existing ginseng seed extract was orally administered to 39-week-old female Sprague-Dawley (SD) mice, and 10 mg/kg each thereof was orally administered to the control group GW/Met for 6 weeks. In order to improve the treadmill adaptability during the six-week experiment, mice were placed on the treadmill every two weeks to familiarize them with the use of the treadmill. After six weeks of administration, mice were placed on a treadmill to run on the treadmill. The exercise time was until the mice were exhausted and pushed down from the treadmill, and the mice which finished the exercise was immediately extracted of muscle tissue and plasma by necropsy. […] The expression patterns of mitochondrial marker genes in muscle are shown in FIGS. 16 to 18, and exercise time and plasma lactate in blood are shown in FIGS. 19 and 20.
(§1) The experiments were performed in the same manner as in Test Examples 1 and 2 above, respectively.
(§2) First, the C2C12 myocytes differentiated in the same manner as in Test Example 1 above were treated with ginsenosides Rg1, Rg3, and Rb1, which are comparative examples of the present disclosure, and the novel ginsenoside GS #10 of one embodiment of the present disclosure, respectively, and then mitochondria and marker genes were observed (FIGS. 21 to 25). In addition, in the same manner as in Test Example 2 above, after administration of 20 mg/kg each of ginsenosides Rg1, Rg3, Rb1, which are comparative examples of the present disclosure, and the novel ginsenoside GS #10 of one embodiment of the present disclosure for 6 weeks to the mice, the exercise ability was observed.

[2] = system: mouse-derived myocyte lines (C2C12; ATCC); experiment: Mitochondrial production in differentiated myocytes (Mitotracker Green staining, Q-PCR of mitochondrial marker genes); type: cell-based; details: 20 pg/ml, 24 hours
Experimental: (§3) Ginseng seed-derived ginsenosides were administered to mouse-derived myocyte lines (C2C12; ATCC) to observe changes in mitochondrial amount and fatty acid oxidation in myocytes.
(§4) The mouse-derived myocyte lines (C2C12; ATCC) were cultured using Dulbecco's Modified Eagle's Medium (DMEM; Sigma) containing […] fetal bovine serum (Hyclone) and 1% penicillin/streptomycin (Sigma). The cells were induced to be 100% confluent for differentiation into myocytes and then differentiated using a DMEM medium containing 2% horse serum (Hyclone) and 1% penicillin/streptomycin (Sigma). Medium was changed daily, with differentiation for a total of a week.
(§5) After treating the differentiated myocytes with the novel ginsenoside GS #10 of one embodiment of the present disclosure and the other ginsenosides GS #01-GS #06 isolated from the existing ginseng seed extract at a concentration of 20 pg/ml for 24 hours, respectively, the amount of mitochondria in myocytes was observed by staining with a Mitotracker Green™ (Invitrogen) reagent. mRNA expression levels of mitochondrial marker genes were measured using Q-PCR. As positive controls, a combination of GW501516 and Metformin (GW/Met; treated at 10 μM each), which are candidates for exercise mimetics and are known to improve exercise ability by activating PPARδ (Peroxisome proliferator-activated receptor delta) and AMPK (AMP-activated protein kinase), respectively, was used. The mitochondrial number measured as a result of the test is shown in FIG. 11, and the mitochondrial marker gene expression levels are shown in FIGS. 12 to 14.
as §1, §2

[3] = system: C2C12 myoblasts; experiment: Myocyte differentiation promotion (mRNA of MyoG, α-actin, myosin); type: cell-based, mouse; details: 10 pg/ml during 4 days of differentiation in 2% horse serum; FIGS. 29-31, 33-35
Experimental: As muscles decrease with age, supplementing muscle mass by differentiating myoblasts into myocytes is an essential process for maintaining muscle mass. […] During the differentiation period, the novel ginsenoside GS #10 of one embodiment of the present disclosure and the other ginsenosides GS #01-GS #06 isolated from the existing ginseng seed extract were treated at a concentration of 10 pg/ml, respectively. The control is differentiation medium not treated with ginsenosides. […] After 4 days of differentiation, mRNA was extracted from each treatment group using Trizol™ reagent (Thermo Fisher Scientific), and then cDNA was synthesized using a RevertAid 1st strand cDNA synthesis kit (Thermo Fisher Scientific). The expression levels of myoG, α-actin and myosin, which are muscle fiber marker genes, were observed using a temperature-cycling nucleic acid amplifier (CFX96 thermocycle, Bio-Rad).
The experiment was performed in the same manner as in Test Examples 5 and 6.

[4] = system: SH-SY5Y cells; experiment: Cytotoxicity, Cell Counting Kit (CCK)-8; type: cell-based; details: SH-SY5Y cells, 0.1, 1, 5, 10, 20 and 50 μM; FIG. 27
Experimental: The cell growth in the presence of novel ginsenoside GS #10 of one embodiment of the present disclosure was evaluated using Cell Counting Kit (CCK)-8 in order to exclude the possibility that ginsenosides may affect exercise ability enhancing efficacy through cytotoxic activity. The experimental method is as follows.
10 μl of a CCK-8 reagent was added to SH-SY5Y cells in culture (Dojindo, Md., USA) with reference to a 96-well plate and left at 37° C. for 2 hours, and then absorbance was measured at 450 nm. The cell viability was marked as a percentage (%) of the absolute optical density of each sample relative to the untreated sample. At this time, the concentration of the novel ginsenoside GS #10, which is an example of the present disclosure, contained in the medium in which the cells were cultured was 0.1, 1, 5, 10, 20, and 50 μM, respectively.

[5] = system: Balb/c mice; experiment: Anti-fatigue efficacy in sleep-deprivation fatigue model (forced swim test, plasma lactate); type: in vivo; details: oral, 2 weeks; GS #10 10 and 50 mg/kg, ginseng seed extract 50 mg/kg; 24 hours sleep deprivation; FIGS. 36, 37
Source text: In Test Example 2 above, it was confirmed that the novel ginsenoside GS #10 of one embodiment of the present disclosure improved exercise ability and lowered plasma lactate in blood that is increased by exercise. […] Experimental methods are the same as those described in Cho et al., Biol Pharm Bull 33 (7):1128, which is incorporated herein by reference in its entirety. Balb/c mice purchased from Samtako were adapted to the age of 12 weeks and then divided into a fatigue-induced group of 32 mice and a control of 8 mice. The fatigue-induced group was divided into 4 groups again, each of 8 mice, of which is the novel ginsenoside GS #10 10 mg/kg treatment group (F/GS #10 10), 50 mg/kg treatment group (F/GS #10 50), ginseng seed extract 50 mg/kg treatment group (F/GSE #10 50), and untreated group (Fatigue). The ginseng seed extract is a comparative example of the present disclosure, and is a ginseng seed (seeds of Panax ginseng) methanol extract used in the isolation of ginsenoside in Example 1 described above herein. […] Then, while performing the FST (forced swim test) 6 minutes, the time during which the mice of each experiment group floated still on the water without swimming was measured to calculate fatigue. Thereafter, the plasma lactate in blood was measured, and the degree of accumulation of the fatigue substance was observed. […]

[6] = system: C2C12 myoblasts induced with chronic inflammation (IL-6); experiment: Cell growth recovery of myoblasts with IL-6-induced chronic inflammation; type: cell-based, mouse; details: IL-6 10 ng/ml for 4 weeks, then 10 pg/ml for 48 hours; FIGS. 28, 32
Source text: Muscle cells are made from myosatellite cells present inside the muscle. They are usually in a quiescent state, and when muscle damage such as exercise is applied, they wake up and are divided to form myoblasts, and these myoblasts differentiate to form myocytes. These muscle stem cells are known to decrease in number and activity with age. In this process, the inflammatory response, especially IL-6 is involved. Therefore, it was confirmed through the following experiment whether the novel ginsenoside of the embodiment of the present disclosure can restore cell division of muscle stem cells under IL-6-mediated muscle stem cell growth inhibition conditions.
Since muscle stem cells are not available in the form of cell lines, mouse-derived muscle cell lines (C2C12, ATCC) located between muscle stem cells and myoblasts were cultured using Dulbecco's Modified Eagle's Medium (Sigma) containing 10% fetal bovine serum (Hyclone) and 1% penicillin/streptomycin (Sigma). […] Accordingly, in order to induce an inflammatory state due to aging, IL-6 (10 ng/ml) was treated for 4 weeks to induce myoblast aging. […] Myoblasts of this state were treated with the novel ginsenoside GS #10 of one embodiment of the present disclosure and the other ginsenosides GS #01-GS #06 isolated from the existing ginseng seed extract at a concentration of 10 pg/ml each for 48 hours. […]

[7] = system: mouse-derived myocyte lines (C2C12; ATCC); experiment: Fatty acid oxidation in differentiated myocytes; type: cell-based; details: 20 pg/ml, 24 hours, FIG. 15
Experimental: as §3, §4
as §5, with “As positive controls, a combination of GW501516 and Metformin (GW/Met; treated at 10 μM each), which are candidates for exercise mimetics and are known to improve exercise ability by activating PPARδ (Peroxisome proliferator-activated receptor delta) and AMPK (AMP-activated protein kinase), respectively, was used.” left out

Molecule	expression of mitochondrial marker gene in muscle (mitochondrial activity) [1]	exercise time / exercise ability on treadmill [1]	mitochondrial biosynthesis ability / mitochondria production (mitochondrial number; PGC1α, NRF1, tfam expression) ([2]; FIGS. 11-14, 21-24)	mitochondrial biosynthesis ability / mitochondria production (mitochondrial number; PGC1α, NRF1, tfam expression) ([2]; FIGS. 11-14, 21-24, listed as Rb1)	myocyte differentiation marker gene expression (MyoG, α-actin, myosin) [3]	cytotoxicity (cell viability, % of untreated) [4]	fatigue relief (FST immobility time, plasma lactate) [5]	lactic acid concentration (plasma lactate), muscle fatigue marker ([1]; blood after treadmill, FIGS. 20, 26)	cell growth recovery of aged myoblasts (number of cells) [6]	fatty acid oxidation in myocytes [7]
CC(C)=CCC[C@](C)(O[C@@H]1O[C@H](CO[C@@H]2O[C@H](CO)[C@@H](O)[C@H](O)[C@H]2O)[C@@H](O)[C@H](O)[C@H]1O)[C@H]1CC[C@]2(C)[C@@H]1[C@H](O)C[C@@H]1[C@@]3(C)CC[C@H](O[C@@H]4O[C@H](CO)[C@@H](O)[C@H](O)[C@H]4O[C@@H]4O[C@H](CO)[C@@H](O)[C@H](O)[C@H]4O)C(C)(C)[C@@H]3CC[C@]12C [GS #05, ginsenoside Rb1, reference compound]	insignificant	insignificant	a slight mitochondria increasing efficacy	did not increase mitochondria production						
CC(C)=CCC[C@](C)(O[C@@H]1O[C@H](CO[C@@H]2OC[C@H](O)[C@H](O)[C@H]2O)[C@@H](O)[C@H](O)[C@H]1O)[C@H]1CC[C@]2(C)[C@@H]1[C@H](O)C[C@@H]1[C@@]3(C)CC[C@H](O[C@@H]4O[C@H](CO)[C@@H](O)[C@H](O)[C@H]4O[C@@H]4O[C@H](CO)[C@@H](O)[C@H](O)[C@H]4O)C(C)(C)[C@@H]3CC[C@]12C [GS #06, ginsenoside Rb2, reference compound]	insignificant	insignificant	a slight mitochondria increasing efficacy							
C[C@@H]1CC(=O)C(C)(C)C2C1C1C[C@@H](O)C3C([C@]4(C)CC[C@H](C(C)(C)O)O4)CC[C@@]3(C)[C@]1(C)C[C@@H]2O[C@H]1OC(CO)[C@H](O)C(O)C1O[C@H]1OC(CO)[C@H](O)C(O)C1O (stereo partly drawn) [GS #10, (20S,24R)-6-O-β-D-glucopyranosyl(1→2)-β-D-glucopyranoside-dammar-3-one-20,24-epoxy-6a,12b,25-triol]	significantly increased	doubled the exercise time; also recorded: significant exercise ability improvement	the most excellent; also recorded: showed mitochondria increasing efficacy		a significant increase in marker gene expression; also recorded: myocyte differentiation	did not exhibit cytotoxicity up to 50 μM	reduce the symptoms caused by fatigue in a concentration-dependent manner	the lowest pattern; also recorded: anti-fatigue effect	a significant effect; also recorded: showed the effects of promoting myoblast growth	increased the most
CC(C)=CCC[C@](C)(O[C@@H]1O[C@H](CO)[C@@H](O)[C@H](O)[C@H]1O)[C@H]1CC[C@]2(C)[C@@H]1[C@H](O)C[C@@H]1[C@@]3(C)CC[C@H](O)C(C)(C)[C@@H]3[C@@H](O[C@@H]3O[C@H](CO)[C@@H](O)[C@H](O)[C@H]3O)C[C@]12C [Rg1, ginsenoside Rg1]			did not increase mitochondria production							
ginsenoside Rg3			did not increase mitochondria production							

Reference: patent US11000538B2, “Composition for enhancing exercise ability or anti-fatigue comprising novel ginsenoside” (priority 2018, dated 2021)
